Assay results taken from the NIST ThermoML archive (doi:10.1021/je8003468).

Conditions: Ring tensiometer

CO [methanol]
Conditions | surface tension liquid-gas [mN/m]
279.11 K | 23.87
282.59 K | 23.63
288.3 K | 23.14
293.37 K | 22.73
296.97 K | 22.43
301.54 K | 21.99
307.31 K | 21.43
311.76 K | 21
317.66 K | 20.43
322.9 K | 19.83
326.56 K | 19.42
330.01 K | 19.09
333.81 K | 18.63
